What was measured:
Format in all cases: in vivo, New Zealand White rabbits
[1] = Body weight at necropsy, cholesterol fed rabbit model; settings: cholesterol diet, OVX, necropsy at 20 weeks
Description: (§1) The model is considered relevant to the human atherosclerotic process, because the cellular events occurring during the development of the atherosclerotic lesions during the atherogenic diet are similar to those observed in different stages of atherosclerotic processes in coronary arteries.
(§2) An experiment was performed with 7 groups of sexually mature, virgin female New Zealand White rabbits (Harlan, Zeist, The Netherlands), age 7-9 months and weighing approximately 3 kg (number of […] per group: 13-14). During the acclimatization period the rabbits were fed a diet of standard commercial rabbit chow LKK20 (Hope Farms, Woerden, The Netherlands). Three weeks prior to the start of the experiment the animals were anaesthetized and underwent bilateral ovariectomy (OVX) or were sham operated. After three weeks, at the start of the experiment, the rabbits were randomized over the treatment groups. In all animals de-endothelialisation of a segment of the left carotid artery was applied by using the air-drying technique (Fishman, J.A. et al., "Endothelial regeneration in the rat carotid artery and the significance of endothelial denudation in the pathogenesis of myointimal thickening", Lab. Invest. 1975, 32, 339-351; and Lafont, A. et al., "Restenosis and experimental angioplasty: Intimal, medial and adventitial changes associated with constructive remodeling", Circulation Research, 1995, 76, 996-1002)
(§3) The animals were randomly allocated into 7 experimental groups using a randomized block design. The groups were fed an atherogenic diet (commercial rabbit chow (LKK20) enriched with 0.4 grams cholesterol, 3.75 grams coconut oil and 3.75 grams peanut oil per 100 grams). One group was fed the standard rabbit chow (LKK20). Food intake was restricted to 80 grams daily.
(§4) The treatments (Table I) were daily administered orally as a tablet, prepared as in Example 1. Groups 1, 2 and 3 were on a daily placebo treatment. Groups 4-5 were treated with 7α-methyl-17α-ethynyl-17β-hydroxy-estra-5(10)-en-3-one (OD-14; tibolone; 6 or 2 mg daily); group 6 with 17β-estradiol (4 mg daily). Group 7 was on treatment with 17β-estradiol decanoate (150 µg in 1 ml arachis oil injected subcutaneously once a week).
(§5) During the experiment blood samples were drawn out of the central ear artery after sedation with Hypnorm (0.1 ml i.m.) (Janssen Pharmaceutics, Beerse, Belgium) before the daily treatment, at week 4,8,12,16 and 20, to monitor the plasma cholesterol levels and to measure, at week 17, plasma estradiol levels and plasma tibolone levels. Twenty weeks after the start of the experiment animals were anaesthetized by an i.m. injection of Hypnorm (0.5 ml/kg). After blood sampling the rabbits were killed by exsanguination and the aortic arch, uterus and carotid artery removed for further analyses.
(§6) In addition to example 2 an additional experiment was performed with two lower doses of Org OD14 and a higher dose of estradiol decanoate. […] The procedures were identical to those in example 2.
(§7) Three weeks prior to the start of the experiment the animals were ovariectomized. At the start of the experiment the carotid artery was de-endothelialised using the air-drying technique. The normal rabbit chow was replaced by the atherogenic diet except for the control group which received during the experiment the normal rabbit chow.
(§8) The treatments (table II) of group 1, 2, 3 and 4 were daily administered orally as a tablet, prepared as in example 1. The doses of Org OD14 per tablet, however, were 0.6 mg and 0.15 mg respectively. Group 5 was on treatment with 17β-estradiol decanoate (300 µg in 1 ml arachis oil injected subcutaneously once a week). Twenty weeks after the start of the experiment was ended in the same manner as described in example 2.
(§9) After 20 weeks of diet and of daily treatment, necropsy was performed to determine the accumulation of cholesterol and fatty streaks in the aortic arch and the advanced lesions in the carotid artery. […]

[2] = system: female ovariectomized rabbits; assay: Overall atherosclerotic lesion formation, cholesterol fed rabbit model; settings: Example 3: Org OD14 0.6 mg orally daily; estradiol decanoate 300 µg s.c. weekly
Description: as §1, §6, §7, §8
In example 3 we tested Org OD14 at two lower doses (0.6 and 0.15 mg orally once daily) and estradiol decanoate at a higher dose (300 µg s.c. once weekly). […]

[3] = system: female ovariectomized rabbits; assay: Fatty streaks in the aortic arch (Sudan Red, image analysis); settings: cholesterol diet, OVX, necropsy at 20 weeks
Description: as §1, §2, §3, §4, §5, §6, §7, §8
The aortic arch was dissected free, opened longitudinally and fixed in 2% paraformaldehyde. The tissue was then stained for lipids using 0.3% (w/v) Sudan Red. Colour photographs were taken of all segments. […]

[4] = system: female ovariectomized rabbits; assay: Intimal thickening (advanced lesions) in carotid artery after de-endothelialisation; settings: for Advanced lesions in carotid artery: intimal surface: cholesterol diet, OVX, necropsy at 20 weeks; for advanced lesion formation following mechanical de-endothelisation (in words): Example 2: Org OD14 2 and 6 mg, E2 4 mg orally daily, E2D 150 µg s.c. weekly
Description: as §1, §2, §3, §4
During the experiment blood samples were drawn out of the central ear artery after sedation with Hypnorm (0.1 ml i.m.) (Janssen Pharmaceutics, Beerse, Belgium) before the daily treatment, at week 4,8,12,16 and 20, to monitor the plasma cholesterol levels and to measure, at week 17, plasma estradiol levels and plasma tibolone levels. Twenty weeks after the start of the experiment animals were anaesthetized by an i.m. injection of Hypnorm (0.5 ml/kg). After blood sampling the rabbits were killed by exsanguination and the aortic arch, uterus and carotid artery removed for further analyses. […]
The left (airdried) carotid artery was dissected and fixed in 2% paraformaldehyde containing 6.8% glucose. The right carotid artery was used as comparison. After fixation the tissue was divided in blocks with a length of 2 mm and embedded in paraffin (Paraplast plus®, Sherwood Medical Co, St. Louis, USA) using an automated tissue processor (Hypercenter XP, Shandon).
To measure intimal thickening (using image analysis) a specific staining method and a belonging image analysis application have been developed.
Measurements were performed on 2 µm transverse sections which were treated with elastase (Serva Feinbiochemica Gmbh, Heidelberg, Germany) prior to elastin staining with Lawson solution (Boom, Meppel, the Netherlands) and light green (Sigma). Subsequently sections were airdried and mounted in Pertex (Leica Gmbh, Nussloch, Germany).
For morphological study both methylene blue/Azur II and hemotoxylin/eosin stained (2 µm) transverse sections were used. Smooth muscle cells and macrophages were detected with respectively α-actin antibodies (Sigma) and anti-macrophage antibodies (RAM11, DAKO, Glostrup, Denmark). […]

[5] = system: female ovariectomized rabbits; assay: Plasma cholesterol levels, cholesterol fed rabbit model; settings: for Mean plasma cholesterol exposure: cholesterol diet, OVX, 20 weeks; for plasma cholesterol levels (in words): Example 2: Org OD14 2 and 6 mg, E2 4 mg orally daily, E2D 150 µg s.c. weekly
Description: as §1
(§10) An experiment was performed with 7 groups of sexually mature, virgin female New Zealand White rabbits (Harlan, Zeist, The Netherlands), age 7-9 months and weighing approximately 3 kg (number of […] per group: 13-14). During the acclimatization period the rabbits were fed a diet of standard commercial rabbit chow LKK20 (Hope Farms, Woerden, The Netherlands). Three weeks prior to the start of the experiment the animals were anaesthetized and underwent bilateral ovariectomy (OVX) or were sham operated. After three weeks, at the start of the experiment, the rabbits were randomized over the treatment groups.
(§11) The animals were randomly allocated into 7 experimental groups using a randomized block design. […] One group was fed the standard rabbit chow (LKK20). Food intake was restricted to 80 grams daily.
(§12) Groups 1, 2 and 3 were on a daily placebo treatment. Groups 4-5 were treated with 7α-methyl-17α-ethynyl-17β-hydroxy-estra-5(10)-en-3-one (OD-14; tibolone; 6 or 2 mg daily); group 6 with 17β-estradiol (4 mg daily). Group 7 was on treatment with 17β-estradiol decanoate (150 µg in 1 ml arachis oil injected subcutaneously once a week).
as §5, §7
(§13) Group 5 was on treatment with 17β-estradiol decanoate (300 µg in 1 ml arachis oil injected subcutaneously once a week).

[6] = system: female ovariectomized rabbits; assay: Uterus weight (estrogenic activity), cholesterol fed rabbit model; settings: for Uterus weight per 100 grams body weight: cholesterol diet, OVX, necropsy at 20 weeks
Description: as §1, §2, §3, §4, §5, §6, §7, §8, §9

[7] = system: female ovariectomized rabbits; assay: Vessel wall cholesterol measurement in the aortic arch; settings: for Cholesterol level in aortic arch: cholesterol diet, OVX, necropsy at 20 weeks
Description: as §1, §10, §11, §12, §5, §7, §13
The amount of protein in the tissue was determined by the method of Lowry.

[8] = Example 2, Group 7: 150 µg subcutaneously once a week
[9] = Example 3: 300 µg subcutaneously once weekly
[10] = Example 2, Group 6: 4 mg orally daily

For `CCCCCCCCCC(=O)O[C@H]1CC[C@H]2[C@@H]3CCc4cc(O)ccc4[C@H]3CC[C@]12C` [Estradiol decanoate, 17β-estradiol decanoate, reference compound], the Body weight [1, 8] was 2973 ± 52 grams, the Body weight [1, 9] was 3093 ± 60 grams and the “atherosclerotic lesion formation (in words)” value [2] was “still only partially inhibited”. The “Fatty streak in aortic arch” value [3, 8] was 28.1 ± 4.1 % of arcus covered, the “Fatty streak in aortic arch” value [3, 9] was 14.2 ± 3.2 % of arcus covered and the “Advanced lesions in carotid artery: intimal surface” value (from here on “Advanced lesions in carotid artery”) [4, 8] was 0.23 ± 0.06 * mm^2. For the same compound, the “Histology of the lesions” value ([4]; Example 2, carotid artery, placebo on cholesterol diet: smooth muscle cells and foam cells) was “the lesions still consisted of smooth muscle cells and foam cells”, the “advanced lesion formation following mechanical de-endothelisation (in words)” value [4] was “reduced advanced lesion formation” and the “Advanced lesions in carotid artery” value [4, 9] was 0.18 ± 0.02 * mm^2. The “Mean plasma cholesterol exposure” value [5, 8] was 30.0 ± 3.7 mmol/L/day, the “plasma cholesterol levels (in words)” value [5] was “did not affect plasma cholesterol levels” and the “Mean plasma cholesterol exposure” value [5, 9] was 23.0 ± 2.0 mmol/L/day. The “Uterus weight per 100 grams body weight” value [6, 8] was 0.37 ±0.04 per 100 grams body weight, the “increase of uterus weight” value ([6]; Example 3, text: estradiol decanoate 300 µg s.c. once weekly, versus placebo 0.054) was 835% and the uterus weight ([6]; Example 3, text: estradiol decanoate 300 µg s.c. once weekly, placebo 0.054) was 0.505 grams per 100 grams body weigh. The “Uterus weight per 100 grams body weight” value [6, 9] was 0.505 ±0.075 per 100 grams body weight, the “Cholesterol level in aortic arch” value [7, 8] was 318 ± 58 nmol/mg protein and the “reduction of cholesterol accumulation in the aortic arch” value ([7]; Example 2: 150 µg s.c. once a week, versus placebo) was 46%. For the same compound, the “Cholesterol level in aortic arch” value [7, 9] was 225 ± 69 nmol/mg protein.

In the case of `C[C@]12CC[C@@H]3c4ccc(O)cc4CC[C@H]3[C@@H]1CCC2O` (stereo partly drawn) [Estradiol, estra-1,3,5 (10)-triene-3,17-diol, reference compound], the “Fatty streak in aortic arch” value [3, 10] is reported as 25.5 ± 5.2 % of arcus covered, the “Advanced lesions in carotid artery” value [4, 10] is reported as 0.30 ± 0.06 mm^2 and the “advanced lesion formation following mechanical de-endothelisation (in words)” value [4] is reported as “had no effect on advanced lesion formation”. For the same compound, the “Mean plasma cholesterol exposure” value [5, 10] was 27.7 ± 2.8 mmol/L/day, the “plasma cholesterol levels (in words)” value [5] was “did not affect plasma cholesterol levels” and the “Uterus weight per 100 grams body weight” value [6, 10] was 0.31 ±0.02 per 100 grams body weight. For the same compound, the “Cholesterol level in aortic arch” value [7, 10] was 521 ± 99 nmol/mg protein and the “cholesterol accumulation in the aortic arch (in words)” value ([7]; Example 2: Org OD14 2 and 6 mg, E2 4 mg orally daily) was “did not lead to a reduction in cholesterol accumulation”.
